US20090105197A1 (priority 2001, published 2009)
Where “and” joins values, the source holds several entries; their conditions need not be identical. Identical values can stand only once.

Tests used:
[1] = system: heat-induced tail flick in mice; conditions: mouse, in vivo
[2] = system: acetic acid-induced writhing in mice; assay: animal or person; type: in vivo, Kunming mice; conditions: for ID95 (95% inhibition dose) of aspirin: i.m.
[3] = Mus musculus, im, read-out: inhibition Rate (%)
[4] = combined with small doses of TTX (1/25 and 1/50 LD50) versus aspirin alone

Structure (SMILES): NC1=N[C@H](O)[C@H]2[C@H]3O[C@]4(O)O[C@@H]([C@@H](O)[C@@]2(N1)[C@@H]4O)[C@]3(O)CO [TTX, Tetrodotoxin]
- analgesic effect with escalating doses [1]: did not increase markedly with escalating doses
- Average Writhing movements ([2]; mouse, in vivo, 3 mg/kg): 28.2 ± 9.65
- Average Writhing movements ([2]; mouse, in vivo, ip, 3 mg/kg): 23.2 ± 11.7

Structure (SMILES): CC(=O)Oc1ccccc1C(=O)O [ASP, Aspirin]
- Average Writhing movements ([2]; ASP alone 25 mg/kg i.m.): 25.1 ± 14.5
- Average Writhing movements ([2]; ASP alone 50 mg/kg i.m.): 19.3 ± 13.8
- Average Writhing movements ([2]; ASP alone 100 mg/kg i.m.): 12.0 ± 9.2
- Average Writhing movements ([2]; ASP alone 150 mg/kg i.m.): 5.2 ± 5.7
- Average Writhing movements ([2]; ASP alone 200 mg/kg i.m.): 2.7 ± 1.9
- inhibition at 25 mg/kg [2, 3]: 35.6%
- inhibition at 50 mg/kg [2, 3]: 50.6%
- inhibition at 100 mg/kg [2, 3]: 69.3%
- inhibition at 150 mg/kg [2, 3]: 86.6%
- inhibition at 200 mg/kg [2, 3]: 93.2%
- ID95 (95% inhibition dose) of aspirin ([2]; aspirin alone): 361.8 mg/kg
- ID95 (95% inhibition dose) of aspirin ([2]; aspirin alone, listed as aspirin): 361.8 mg/kg and 361.77 mg/kg
- ID95 (95% inhibition dose) of aspirin ([2]; aspirin combined with TTX 0.39 μg/kg (1/50 LD50)): 154.3 mg/kg and 154.33 mg/kg
- ID95 (95% inhibition dose) of aspirin ([2]; aspirin combined with TTX 0.79 μg/kg (1/25 LD50)): 94.5 mg/kg and 94.47 mg/kg
- reduction of ID50 of aspirin [2, 4]: exceeded two folds
- reduction of ID95 of aspirin [2, 4]: exceeded two folds
